# System: 991263-137-R1-J2-PDC complex spheroid viability
# Assay: Anticancer human tumor 991263-137-R1-J2-PDC patient-derived colon adenocarcinoma cell line growth inhibition [POLQ]
# Conditions: for IC50: curve of first compound; for viability, T/C: stronger effect = lower value
# Method: Multicellular complex tumor spheroid response to Polymerase (POL) inhibitors (novobiocin, ART-558, RP6685) in combination with a variety of drugs and investigational agents in selected tumor cell lines
# The POL inhibitors (novobiocin, ART-558, and RP6685) were evaluated both individually and in combination with standard of care and investigational anticancer small molecules within a complex spheroid model of solid tumors. . Complex spheroids include a stromal component modeled by human endothelial cells (HUVEC) and fibroblasts modeled by human mesenchymal stem cells (MSCs). The concentration ranges selected for each drug and investigational agent were based upon clinically achievable concentrations if the clinical Cmax of the agent was known.
# Compounds. The drugs and investigational agents: novobiocin (NSC847541), ART-558 (NSC835418), RP-6685 (NSC848927), peposertib (NSC802822), ceralasertib (NSC780249), elimusertib (NSC800525), camonsertib (NSC841442), AZD-1390 (NSC803789), olaparib (NSC753686), talazoparib (NSC767125), rucaparib (NSC756644), sotorasib (NSC818433), MRTX-1133 (NSC836407), SN-38 (NSC673596), topotecan (NSC609699), epotoside (NSC141540), doxorubicin (NSC123127), gemcitabine (NSC613327), 5-fluorouracil (NSC19893), paclitaxel (NSC125973), vemurafenib (NSC761431), MSA-2 (NSC828583), SN-011 (NSC837082), adavosertib (NSC754352), prexasertib (NSC758257), carboplatin (NSC241240) and oxaliplatin (NSC266046), were obtained from the National Cancer Institute (NCI) Developmental Therapeutics Program Chemical Repository (21). The FDA-approved anticancer drug set is available from the Developmental Therapeutics Program at https://dtp.cancer.gov/organization/dscb/obtaining/. […] The stock solutions were prepared in dimethyl sulfoxide (DMSO, Sigma-Aldrich, St. Louis, MO, cat. D2650), except for the platinum compounds which were prepared in saline (Quality Biological, Gaithersburg, MD, cat. 114-055-101), at 800-fold the tested concentration and stored at -70 degrees C prior to their use. All drugs and investigational agents were tested over a range starting from a high concentration at or near the clinical Cmax and decreasing in half-log increments. If the clinical Cmax for an agent had not been determined, the highest concentration tested was 10 microM, except for SN-38, which was tested at a high concentration of 1 microM.
# Cell Culture. All cells were maintained in an incubator at 37 degrees C and 5% CO2 with 95% humidity. The PDC lines were cultured according to standard operating procedures established by the NCI PDMR (https://pdmr.cancer.gov). Table 3 of the manuscript, lists the cell lines along with the number of the three cell types plated to form the mct-spheroids and media for tumor cell growth. After thawing, all PDC lines, except 997537-175-T-J1-PDC and 415267-285-R-J2-PDC, were cultured in Matrigel-coated flasks prepared with a working solution of 1X Ham's F-12 nutrient mix, without supplementation (Thermo Fisher Scientific, cat. 11765054), 100 U/mL penicillin-streptomycin (Thermo Fisher Scientific, cat. 15140122), and 2.5% Matrigel (Corning Inc., Corning, NY, cat. 354248) for the first three passages. The two PDC lines 997537-175-T-J1-PDC and 415267-285-R-J2-PDC were cultured on uncoated flasks. The 857933-349-R-J2-PDC line was cultured in 6C/Colon 1B media containing advanced DMEM/F-12 (Thermo Fisher Scientific, cat. 12634028), 10 mM HEPES (Thermo Fisher Scientific, cat. 15630080), 1X GlutaMAX supplement (Thermo Fisher Scientific, cat. 35050061), 0.1 mg/mL primocin (InvivoGen, San Diego, CA, cat. ant-pm-2), 10% defined fetal bovine serum, heat inactivated (HyClone Laboratories Inc., Logan, UT, cat. SH30070.03HI), 50% L-WRN conditioned media (ATCC, cat. CRL-3276), 1.25 mM N-Acetyl-L-cysteine (Sigma-Aldrich, cat. A9165), 10 mM nicotinamide (Sigma-Aldrich, cat. N0636), 1X B-27 supplement (Thermo Fisher Scientific, cat. 17504044), 1X N-2 supplement (Thermo Fisher Scientific, cat. […]
# [1] = second compound 0.0316 µM, first compound 0.0316 µM
# [2] = second compound 0.0316 µM, first compound 0.1 µM
# [3] = second compound 0.0316 µM, first compound 0.316 µM
# [4] = second compound 0.0316 µM, first compound 1 µM
# [5] = second compound 0.1 µM, first compound 0.0316 µM
# [6] = second compound 0.1 µM, first compound 0.1 µM
# [7] = second compound 0.1 µM, first compound 0.316 µM
# [8] = second compound 0.1 µM, first compound 1 µM
# [9] = second compound 0.316 µM, first compound 0.0316 µM
# [10] = second compound 0.316 µM, first compound 0.1 µM
# [11] = second compound 0.316 µM, first compound 0.316 µM
# [12] = second compound 0.316 µM, first compound 1 µM
# [13] = second compound 1 µM, first compound 0.0316 µM
# [14] = second compound 1 µM, first compound 0.1 µM
# [15] = second compound 1 µM, first compound 0.316 µM
# [16] = second compound 1 µM, first compound 1 µM
# [17] = second compound 3.16 µM, first compound 0.0316 µM
# [18] = second compound 3.16 µM, first compound 0.1 µM
# [19] = second compound 3.16 µM, first compound 0.316 µM
# [20] = second compound 3.16 µM, first compound 1 µM
# [21] = second compound 10 µM, first compound 0.0316 µM
# [22] = second compound 10 µM, first compound 0.1 µM
# [23] = second compound 10 µM, first compound 0.316 µM
# [24] = second compound 10 µM, first compound 1 µM
# 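Note: spheroids exposed to compounds for 7 days before readout.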
# 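Throughout, for viability, T/C: 100% = DMSO vehicle control viability.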
smiles,measurement,setting,value
COc1cccc(OCCCN)c1-c1cc(Nc2cnc(C#N)cn2)n[nH]1 + COC1C(OC(N)=O)C(O)C(Oc2ccc3c(O)c(NC(=O)c4ccc(O)c(CC=C(C)C)c4)c(=O)oc3c2C)OC1(C)C,IC50,second compound 0.0316 µM,276 nM
same,IC50,second compound 0.1 µM,421 nM
same,IC50,second compound 0.316 µM,338 nM
same,IC50,second compound 1 µM,459 nM
same,IC50,second compound 3.16 µM,491 nM
same,IC50,second compound 10 µM,513 nM
same,"viability, T/C","second compound 0.0316 µM, first compound 0.00316 µM",111%
same,"viability, T/C","second compound 0.0316 µM, first compound 0.01 µM",109%
same,"viability, T/C",[1],84.4%
same,"viability, T/C",[2],63.6%
same,"viability, T/C",[3],52.1%
same,"viability, T/C",[4],35.6%
same,"viability, T/C","second compound 0.1 µM, first compound 0.00316 µM",97.3%
same,"viability, T/C","second compound 0.1 µM, first compound 0.01 µM",89.4%
same,"viability, T/C",[5],92.9%
same,"viability, T/C",[6],69.2%
same,"viability, T/C",[7],59.6%
same,"viability, T/C",[8],28.7%
same,"viability, T/C","second compound 0.316 µM, first compound 0.00316 µM",99.3%
same,"viability, T/C","second compound 0.316 µM, first compound 0.01 µM",104%
same,"viability, T/C",[9],102%
same,"viability, T/C",[10],77.8%
same,"viability, T/C",[11],53.2%
same,"viability, T/C",[12],29.6%
same,"viability, T/C","second compound 1 µM, first compound 0.00316 µM",111%
same,"viability, T/C","second compound 1 µM, first compound 0.01 µM",80%
same,"viability, T/C",[13],80.6%
same,"viability, T/C",[14],75.8%
same,"viability, T/C",[15],61.4%
same,"viability, T/C",[16],33.7%
same,"viability, T/C","second compound 3.16 µM, first compound 0.00316 µM",109%
same,"viability, T/C","second compound 3.16 µM, first compound 0.01 µM",74.2%
same,"viability, T/C",[17],91.9%
same,"viability, T/C",[18],87.5%
same,"viability, T/C",[19],59.3%
same,"viability, T/C",[20],34.8%
same,"viability, T/C","second compound 10 µM, first compound 0.00316 µM",75.8%
same,"viability, T/C","second compound 10 µM, first compound 0.01 µM",95.2%
same,"viability, T/C",[21],90%
same,"viability, T/C",[22],76.9%
same,"viability, T/C",[23],59.3%
same,"viability, T/C",[24],37.9%
O=C(c1cc(Cc2n[nH]c(=O)c3ccccc23)ccc1F)N1CCN(C(=O)C2CC2)CC1 + COC1C(OC(N)=O)C(O)C(Oc2ccc3c(O)c(NC(=O)c4ccc(O)c(CC=C(C)C)c4)c(=O)oc3c2C)OC1(C)C,IC50,second compound 0.0316 µM,> 10000 nM
same,IC50,second compound 0.1 µM,> 10000 nM
same,IC50,second compound 0.316 µM,> 10000 nM
same,IC50,second compound 1 µM,> 10000 nM
same,IC50,second compound 3.16 µM,> 10000 nM
same,IC50,second compound 10 µM,> 10000 nM
same,"viability, T/C",[1],99.2%
same,"viability, T/C",[2],96.8%
same,"viability, T/C",[3],90.2%
same,"viability, T/C",[4],92.7%
same,"viability, T/C","second compound 0.0316 µM, first compound 3.16 µM",96.9%
same,"viability, T/C","second compound 0.0316 µM, first compound 10 µM",95.5%
same,"viability, T/C",[5],99.2%
same,"viability, T/C",[6],101%
same,"viability, T/C",[7],100%
same,"viability, T/C",[8],82.1%
same,"viability, T/C","second compound 0.1 µM, first compound 3.16 µM",85.5%
same,"viability, T/C","second compound 0.1 µM, first compound 10 µM",85.6%
same,"viability, T/C",[9],113%
same,"viability, T/C",[10],109%
same,"viability, T/C",[11],81.6%
same,"viability, T/C",[12],92.5%
same,"viability, T/C","second compound 0.316 µM, first compound 3.16 µM",113%
same,"viability, T/C","second compound 0.316 µM, first compound 10 µM",108%
same,"viability, T/C",[13],93.9%
same,"viability, T/C",[14],98.1%
same,"viability, T/C",[15],78.2%
same,"viability, T/C",[16],93.7%
same,"viability, T/C","second compound 1 µM, first compound 3.16 µM",73.5%
same,"viability, T/C","second compound 1 µM, first compound 10 µM",101%
same,"viability, T/C",[17],94.5%
same,"viability, T/C",[18],103%
same,"viability, T/C",[19],104%
same,"viability, T/C",[20],85%
same,"viability, T/C","second compound 3.16 µM, first compound 3.16 µM",109%
same,"viability, T/C","second compound 3.16 µM, first compound 10 µM",113%
same,"viability, T/C",[21],82.4%
same,"viability, T/C",[22],94.7%
same,"viability, T/C",[23],106%
same,"viability, T/C",[24],78.4%
same,"viability, T/C","second compound 10 µM, first compound 3.16 µM",112%
same,"viability, T/C","second compound 10 µM, first compound 10 µM",103%

# Reference: PubChem BioAssay AID1963828 (Molecular Pharmacology Branch, DTP, NCI, 2024)
